Key:
[1] = test system: Synechococcus sp. PCC 7002; assay: Tolerance testing to 1,2-propanediol added to culture medium; type: cell-based; conditions: one week
Description: (§1) The tolerance of cyanobacterial strains PCC 6803 and PCC 7002 to the presence of accumulated 1,2-propanediol in the culture medium was examined by adding a one time bolus of varying amounts of 1,2-propanediol (1%, 2%, 3% and 5%) to exponential phase cultures and comparing the growth of these cultures to a wild type culture with no addition. Growth was monitored by optical density (OD750) for one week. […] PCC 7002.

[2] = test system: Synechocystis sp. PCC 6803; assay: as above; type: cell-based; conditions: one week
Description: as §1

[3] = 1%, 2%, 3% and 5% 1,2-propanediol
[4] = up to 3% 1,2-propanediol, one time bolus to exponential phase culture

## CC(O)CO (centres unmarked) [1,2-propanediol]
[1]; [3]
  lethal effect (complete bleaching): No lethal effect
[1]; [4]
  growth of cultures (OD750) compared to wild type culture with no addition: no difference in the growth
[2]; [3]
  lethal effect (complete bleaching): No lethal effect
[2]; 5% 1,2-propanediol, one time bolus
  growth of cultures (OD750) compared to wild type culture with no addition: less growth, discoloration and clumping
[2]; [4]
  growth of cultures (OD750) compared to wild type culture with no addition: no difference in the growth
